From publication PMC11781080 (RSC Advances, 2025) come the findings set out here.

Test [1] concerns A549 cells (EGFR wild-type non-small-cell lung cancer). The test can be described thus: MTT cell viability assay, A549 cells. It counts as cell-based. The settings on record: Homo sapiens, A549, 72 h, read-out: IC50 A549. For orientation: Formazan colour is commonly taken as a measure of viable cells.
Test [2] relates to Vero cells (normal kidney epithelial cell). The test is described as follows: MTT cell viability assay, Vero cells. It counts as cell-based. Particulars: read-out: IC50 Vero, 72 h, mean ± S.E.M., n = 3.

Turning to `CN(C)C/C=C/C(=O)Nc1cc2c(Nc3ccc(F)c(Cl)c3)ncnc2cc1O[C@H]1CCOC1` [Afatinib], the IC50 is 13.1 ± 0.8 µM in test [1] and 5.77 ± 1.59 µM in test [2].

The IC50 is the concentration needed to halve the response being measured.
